# How the values were obtained:
# [1] = system: LAMPU (Lamium purpureum, purple deadnettle); test: Postemergence herbicidal activity of mixtures in cereal crops, greenhouse; format: in vivo, Lamium purpureum L.
# Method: Seeds of the desired test plant species were planted in Sun Gro MetroMix® 306 planting mixture, which typically has a pH of 6.0 to 6.8 and an organic matter content of about 30 percent, in plastic pots with a surface area of 103.2 square centimeters (cm^2). When required to ensure good germination and healthy plants, a fungicide treatment and/or other chemical or physical treatment was applied. The plants were grown for 7-36 days in a greenhouse with an approximate 14 hour photoperiod which was maintained at about 18° C. during the day and about 17° C. during the night. Nutrients and water were added on a regular basis and supplemental lighting was provided with overhead metal halide 1000-Watt lamps as necessary. The plants were employed for testing when they reached the second or third true leaf stage.
# Treatments consisted of the benzyl ester of 4-amino-3-chloro-5-fluoro-6-(4-chloro-2-fluoro-3-methoxy-phenyl)pyridine-2-carboxylic acid (Compound A), formulated as an SC, a second cereal herbicide alone and then both in combination.
# Other herbicidal components were applied on an active ingredient basis and included PSII-inhibiting herbicides.
# Measured aliquots of benzyl ester of 4-amino-3-chloro-5-fluoro-6-(4-chloro-2-fluoro-3-methoxy-phenyl)pyridine-2-carboxylic acid (Compound A) were placed in 25 milliliter (mL) glass vials and diluted in a volume of 1.25% (v/v) Agri-Dex® crop oil concentrate to obtain stock solutions. Compound requirements are based upon a 12 mL application volume at a rate of 187 liters per hectare (L/ha). Spray solutions of the second cereal herbicide and experimental compound mixtures were prepared by adding the stock solutions to the appropriate amount of dilution solution to form 12 mL spray solution with active ingredients in two- and three-way combinations. Formulated compounds were applied to the plant material with an overhead Mandel track sprayer equipped with an 8002E nozzle calibrated to deliver 187 L/ha over an application area of 0.503 square meters (m^2) at a spray height of 18 inches (46 cm) above average plant canopy. Control plants were sprayed in the same manner with the solvent blank.
# The treated plants and control plants were placed in a greenhouse as described above and watered by sub-irrigation to prevent wash-off of the test compounds. After 20-22 days, the condition of the test plants as compared with that of the control plants was determined visually and scored on a scale of 0 to 100 percent where 0 corresponds to no injury and 100 corresponds to complete kill.
# Colby's equation was used to determine the herbicidal effects expected from the mixtures (Colby, S. R. 1967. Calculation of the synergistic and antagonistic response of herbicide combinations. Weeds 15:20-22).
# The following equation was used to calculate the expected activity of mixtures containing two active ingredients, A and B: Expected=A+B−(A×B/100)
# [2] = system: LEFCH (Leptochloa chinensis, Chinese sprangletop); test: Postemergence foliar-applied mixtures, direct seeded rice, greenhouse; format: in vivo, Leptochloa chinensis (L.) Nees; settings: 22 DAA
# From the text: Seeds or nutlets of the desired test plant species were planted in a soil matrix prepared by mixing a loam or sandy loam soil (e.g., 28.6 percent silt, 18.8 percent clay, and 52.6 percent sand, with a pH of about 5.8 and an organic matter content of about 1.8 percent) and calcareous grit in an 80 to 20 ratio. The soil matrix was contained in plastic pots with a volume of 1 quart and a surface area of 83.6 square centimeters (cm^2). When required to ensure good germination and healthy plants, a fungicide treatment and/or other chemical or physical treatment was applied. The plants were grown for 8-22 days in a greenhouse with an approximate 14 h photoperiod which was maintained at about 29° C. during the day and 26° C. during the night. Nutrients (Peters Excel® 15-5-15 5-Ca 2-Mg and iron chelate) were applied in the irrigation solution as needed and water was added on a regular basis. Supplemental lighting was provided with overhead metal halide 1000-Watt lamps as necessary. The plants were employed for testing when they reached the first through fourth true leaf stage. […]
# Treatment requirements were calculated based upon the rates being tested, the concentration of active ingredient or acid equivalent in the formulation, and a 12 mL application volume at a rate of 187 L/ha.
# For treatments comprised of formulated compounds, measured amounts of compounds were placed individually in 25 mL glass vials and diluted in a volume of 1.25% (v/v) Agri-Dex® crop oil concentrated to obtain 12× stock solutions. […]
# For treatments comprised of formulated and technical compounds, weighed amounts of the technical materials were placed individually in 25 mL glass vials and dissolved in a volume of 97:3 v/v acetone/DMSO to obtain 12× stock solutions, and measured amounts of the formulated compounds were placed individually in 25 mL glass vials and diluted in a volume of 1.5% (v/v) crop oil concentrate or water to obtain 12× stock solutions. […]
compound,measurement,setting,value
"COc1c(Cl)ccc(-c2nc(C(=O)OCc3ccccc3)c(Cl)c(N)c2F)c1F [Compound A Benzyl Ester, benzyl ester of 4-amino-3-chloro-5-fluoro-6-(4-chloro-2-fluoro-3-methoxy-phenyl)pyridine-2-carboxylic acid]",Visual Weed Control (%)-21 DAA LAMPU Obs,[1]; Compound A Benzyl Ester 2.5 g ai/ha,80%
same,Visual Weed Control (%)-21 DAA LAMPU Obs,"[1]; Compound A Benzyl Ester 2.5 g ai/ha, Table 22",80%
same,Visual Weed Control (%)-21 DAA LAMPU Obs,[1]; Compound A Benzyl Ester 5 g ai/ha,86%
same,Visual Weed Control (%)-21 DAA LAMPU Obs,"[1]; Compound A Benzyl Ester 5 g ai/ha, Table 22",86%
same,Visual Weed Control (%)-21 DAA LAMPU Obs,[1]; Compound A Benzyl Ester 10 g ai/ha,94%
same,Visual Weed Control (%)-21 DAA LAMPU Obs,"[1]; Compound A Benzyl Ester 10 g ai/ha, Table 22",94%
same,Visual Weed Control (%) Obs,[2]; 8 g ae/ha,35%
same,Visual Weed Control (%) Obs,[2]; 16 g ae/ha,40%

# From US8912121B2, “Herbicidal compositions comprising 4-amino-3-chloro-5-fluoro-6-(4-chloro-2-fluoro-3-methoxyphenyl)pyridine-2-carboxylic acid or a derivative thereof and certain PS II inhibitors” (Dow Agrosciences LLC, priority 2012, dated 2014)
